Laboratory results published in ChEMBL document CHEMBL3792297, “Studies on phenothiazines: New microtubule-interacting compounds with phenothiazine A-ring as potent antineoplastic agents” (Bioorg Med Chem, 2016).

Legend:
[1] = Growth inhibition of human HCC2998 cells at 10 uM after 48 hrs by SRB assay relative to control; assay type: functional; settings: HCC 2998, 48 h, read-out: GI
[2] = Growth inhibition of human HCT116 cells at 10 uM after 48 hrs by SRB assay relative to control; assay type: functional; settings: HCT-116, 48 h, read-out: GI
HT-29 = assay: Growth inhibition of human HT-29 cells at 10 uM after 48 hrs by SRB assay relative to control; assay type: functional; settings: HT-29, 48 h, read-out: GI
[3] = Growth inhibition of human SW620 cells at 10 uM after 48 hrs by SRB assay relative to control; assay type: functional; settings: SW-620, 48 h, read-out: GI
M14 = assay: Growth inhibition of human M14 cells at 10 uM after 48 hrs by SRB assay relative to control; assay type: functional; settings: M14, 48 h, read-out: GI
MDA-MB-435 = assay: Growth inhibition of human MDA-MB-435 cells at 10 uM after 48 hrs by SRB assay relative to control; assay type: functional; settings: MDA-MB-435, 48 h, read-out: GI
SK-MEL-2 = assay: Growth inhibition of human SK-MEL-2 cells at 10 uM after 48 hrs by SRB assay relative to control; assay type: functional; settings: SK-MEL-2, 48 h, read-out: GI
SK-MEL-28 = assay: Growth inhibition of human SK-MEL-28 cells at 10 uM after 48 hrs by SRB assay relative to control; assay type: functional; settings: SK-MEL-28, 48 h, read-out: GI
[4] = Growth inhibition of human LOXIMVI cells at 10 uM after 48 hrs by SRB assay relative to control; assay type: functional; settings: LOX IMVI, read-out: GI
Malme-3M = assay: Growth inhibition of human MALME-3M cells at 10 uM after 48 hrs by SRB assay relative to control; assay type: functional; settings: read-out: GI
[5] = Growth inhibition of human UACC257 cells at 10 uM after 48 hrs by SRB assay relative to control; assay type: functional; settings: UACC-257, 48 h, read-out: GI
[6] = Growth inhibition of human OVCAR5 cells at 10 uM after 48 hrs by SRB assay relative to control; assay type: functional; settings: OVCAR-5, 48 h, read-out: GI
[7] = Growth inhibition of human IGROV1 cells at 10 uM after 48 hrs by SRB assay relative to control; assay type: functional; settings: IGROV-1, 48 h, read-out: GI
A498 = assay: Growth inhibition of human A498 cells at 10 uM after 48 hrs by SRB assay relative to control; assay type: functional; settings: A498, 48 h, read-out: GI
[8] = Growth inhibition of human Caki1 cells at 10 uM after 48 hrs by SRB assay relative to control; assay type: functional; settings: CAKI-1, 48 h, read-out: GI
[9] = Growth inhibition of human RXF393 cells at 10 uM after 48 hrs by SRB assay relative to control; assay type: functional; settings: RXF 393, 48 h, read-out: GI
SN12C = assay: Growth inhibition of human SN12C cells at 10 uM after 48 hrs by SRB assay relative to control; assay type: functional; settings: read-out: GI
[10] = Growth inhibition of human UO31 cells at 10 uM after 48 hrs by SRB assay relative to control; assay type: functional; settings: UO-31, 48 h, read-out: GI
786-0 = assay: Growth inhibition of human 786-0 cells at 10 uM after 48 hrs by SRB assay relative to control; assay type: functional; settings: 786-0, 48 h, read-out: GI
ACHN = assay: Growth inhibition of human ACHN cells at 10 uM after 48 hrs by SRB assay relative to control; assay type: functional; settings: read-out: GI
[11] = Growth inhibition of human TK10 cells at 10 uM after 48 hrs by SRB assay relative to control; assay type: functional; settings: TK-10, 48 h, read-out: GI
[12] = Growth inhibition of human DU145 cells at 10 uM after 48 hrs by SRB assay relative to control; assay type: functional; settings: DU-145, 48 h, read-out: GI
[13] = Growth inhibition of human SNB19 cells at 10 uM after 48 hrs by SRB assay relative to control; assay type: functional; settings: SNB-19, 48 h, read-out: GI
U-251 = assay: Growth inhibition of human U251 cells at 10 uM after 48 hrs by SRB assay relative to control; assay type: functional; settings: U-251, 48 h, read-out: GI
MCF7 = assay: Growth inhibition of human MCF7 cells at 10 uM after 48 hrs by SRB assay relative to control; assay type: functional; settings: MCF7, 48 h, read-out: GI
MDA-MB-231 = assay: Growth inhibition of human MDA-MB-231 cells at 10 uM after 48 hrs by SRB assay relative to control; assay type: functional; settings: MDA-MB-231, 48 h, read-out: GI
T47D = assay: Growth inhibition of human T47D cells at 10 uM after 48 hrs by SRB assay relative to control; assay type: functional; settings: read-out: GI
MDA-MB-468 = assay: Growth inhibition of human MDA-MB-468 cells at 10 uM after 48 hrs by SRB assay relative to control; assay type: functional; settings: MDA-MB-468, 48 h, read-out: GI
Ovis aries = species: Ovis aries; assay: Inhibition of sheep brain tubulin polymerization at 100 uM by DAPI staining-based fluorimetric method
[14] = Growth inhibition of human HL-60(TB) cells at 10 uM after 48 hrs by SRB assay relative to control; assay type: functional; settings: HL-60, 48 h, read-out: GI
K562 = assay: Growth inhibition of human K562 cells at 10 uM after 48 hrs by SRB assay relative to control; assay type: functional; settings: K562, 48 h, read-out: GI
[15] = Growth inhibition of human RPMI8226 cells at 10 uM after 48 hrs by SRB assay relative to control; assay type: functional; settings: RPMI-8226, 48 h, read-out: GI
A549 = assay: Growth inhibition of human A549 cells at 10 uM after 48 hrs by SRB assay relative to control; assay type: functional; settings: A549, 48 h, read-out: GI
[16] = Growth inhibition of human HOP62 cells at 10 uM after 48 hrs by SRB assay relative to control; assay type: functional; settings: HOP-62, 48 h, read-out: GI
[17] = Growth inhibition of human HOP92 cells at 10 uM after 48 hrs by SRB assay relative to control; assay type: functional; settings: HOP-92, 48 h, read-out: GI
NCI-H322M = assay: Growth inhibition of human NCI-H322M cells at 10 uM after 48 hrs by SRB assay relative to control; assay type: functional; settings: read-out: GI
NCI-H460 = assay: Growth inhibition of human NCI-H460 cells at 10 uM after 48 hrs by SRB assay relative to control; assay type: functional; settings: NCI-H460, 48 h, read-out: GI
NCI-H522 = assay: Growth inhibition of human NCI-H522 cells at 10 uM after 48 hrs by SRB assay relative to control; assay type: functional; settings: NCI-H522, 48 h, read-out: GI
[18] = Growth inhibition of human COLO205 cells at 10 uM after 48 hrs by SRB assay relative to control; assay type: functional; settings: COLO 205, 48 h, read-out: GI

## O=C(c1ccc(Cl)cc1Cl)N1c2ccccc2Sc2ccccc21
[1]
  inhibition of growth at 10 µM: 35%
[2]
  inhibition of growth at 10 µM: 77%
HT-29
  inhibition of growth at 10 µM: 52%
[3]
  inhibition of growth at 10 µM: 62%
M14
  inhibition of growth at 10 µM: 40%
MDA-MB-435
  inhibition of growth at 10 µM: 52%
SK-MEL-2
  inhibition of growth at 10 µM: 21%
SK-MEL-28
  inhibition of growth at 10 µM: 35%
[4]
  inhibition of growth at 10 µM: 76%
Malme-3M
  inhibition of growth at 10 µM: 36%
[5]
  inhibition of growth at 10 µM: 36%
[6]
  inhibition of growth at 10 µM: 29%
[7]
  inhibition of growth at 10 µM: 39%
A498
  inhibition of growth at 10 µM: 31%
[8]
  inhibition of growth at 10 µM: 50%
[9]
  inhibition of growth at 10 µM: 30%
SN12C
  inhibition of growth at 10 µM: 33%
[10]
  inhibition of growth at 10 µM: 35%
786-0
  inhibition of growth at 10 µM: 33%
ACHN
  inhibition of growth at 10 µM: 39%
[11]
  inhibition of growth at 10 µM: 27%
[12]
  inhibition of growth at 10 µM: 35%
[13]
  inhibition of growth at 10 µM: 43%
U-251
  inhibition of growth at 10 µM: 67%
MCF7
  inhibition of growth at 10 µM: 48%
MDA-MB-231
  inhibition of growth at 10 µM: 31%
T47D
  inhibition of growth at 10 µM: 33%
MDA-MB-468
  inhibition of growth at 10 µM: 49%
Ovis aries
  inhibition: 44%
[14]
  inhibition of growth at 10 µM: 64%
K562
  inhibition of growth at 10 µM: 100%
[15]
  inhibition of growth at 10 µM: 45%
A549
  inhibition of growth at 10 µM: 46%
[16]
  inhibition of growth at 10 µM: 35%
[17]
  inhibition of growth at 10 µM: 28%
NCI-H322M
  inhibition of growth at 10 µM: 15%
NCI-H460
  inhibition of growth at 10 µM: 82%
NCI-H522
  inhibition of growth at 10 µM: 36%
[18]
  inhibition of growth at 10 µM: 55%

## O=C(c1ccc2c(c1)Sc1ccccc1N2)c1c[nH]c2ccccc12
[1]
  inhibition of growth at 10 µM: 64%
[2]
  inhibition of growth at 10 µM: 82%
HT-29
  inhibition of growth at 10 µM: 99%
[3]
  inhibition of growth at 10 µM: 71%
M14
  inhibition of growth at 10 µM: 86%
SK-MEL-2
  inhibition of growth at 10 µM: 94%
SK-MEL-28
  inhibition of growth at 10 µM: 54%
[4]
  inhibition of growth at 10 µM: 85%
Malme-3M
  inhibition of growth at 10 µM: 49%
[5]
  inhibition of growth at 10 µM: 43%
[6]
  inhibition of growth at 10 µM: 60%
[7]
  inhibition of growth at 10 µM: 71%
A498
  inhibition of growth at 10 µM: 92%
[8]
  inhibition of growth at 10 µM: 66%
[9]
  inhibition of growth at 10 µM: 91%
SN12C
  inhibition of growth at 10 µM: 57%
[10]
  inhibition of growth at 10 µM: 58%
786-0
  inhibition of growth at 10 µM: 50%
ACHN
  inhibition of growth at 10 µM: 45%
[11]
  inhibition of growth at 10 µM: 63%
[12]
  inhibition of growth at 10 µM: 91%
[13]
  inhibition of growth at 10 µM: 41%
U-251
  inhibition of growth at 10 µM: 83%
MCF7
  inhibition of growth at 10 µM: 80%
MDA-MB-231
  inhibition of growth at 10 µM: 54%
T47D
  inhibition of growth at 10 µM: 72%
MDA-MB-468
  inhibition of growth at 10 µM: 100%
Ovis aries
  inhibition: 66%
[14]
  inhibition of growth at 10 µM: 85%
K562
  inhibition of growth at 10 µM: 81%
[15]
  inhibition of growth at 10 µM: 56%
A549
  inhibition of growth at 10 µM: 77%
[16]
  inhibition of growth at 10 µM: 61%
[17]
  inhibition of growth at 10 µM: 28%
NCI-H460
  inhibition of growth at 10 µM: 90%
NCI-H522
  inhibition of growth at 10 µM: 100%
[18]
  inhibition of growth at 10 µM: 100%
